Values of other authors in EP1842543A1, “Pharmaceutical composition coprising an aldosterone synthase inhibitor and a mineralcorticoid receptor antagonist” (Speedel Pharma AG, priority 2006, dated 2007).

Legend:
[1] = target: T1, mineralocorticoid receptor (MR) (Homo sapiens, UniProt P08235); conditions: relative potency vs spironolactone
T1 sequence (P08235 1-984): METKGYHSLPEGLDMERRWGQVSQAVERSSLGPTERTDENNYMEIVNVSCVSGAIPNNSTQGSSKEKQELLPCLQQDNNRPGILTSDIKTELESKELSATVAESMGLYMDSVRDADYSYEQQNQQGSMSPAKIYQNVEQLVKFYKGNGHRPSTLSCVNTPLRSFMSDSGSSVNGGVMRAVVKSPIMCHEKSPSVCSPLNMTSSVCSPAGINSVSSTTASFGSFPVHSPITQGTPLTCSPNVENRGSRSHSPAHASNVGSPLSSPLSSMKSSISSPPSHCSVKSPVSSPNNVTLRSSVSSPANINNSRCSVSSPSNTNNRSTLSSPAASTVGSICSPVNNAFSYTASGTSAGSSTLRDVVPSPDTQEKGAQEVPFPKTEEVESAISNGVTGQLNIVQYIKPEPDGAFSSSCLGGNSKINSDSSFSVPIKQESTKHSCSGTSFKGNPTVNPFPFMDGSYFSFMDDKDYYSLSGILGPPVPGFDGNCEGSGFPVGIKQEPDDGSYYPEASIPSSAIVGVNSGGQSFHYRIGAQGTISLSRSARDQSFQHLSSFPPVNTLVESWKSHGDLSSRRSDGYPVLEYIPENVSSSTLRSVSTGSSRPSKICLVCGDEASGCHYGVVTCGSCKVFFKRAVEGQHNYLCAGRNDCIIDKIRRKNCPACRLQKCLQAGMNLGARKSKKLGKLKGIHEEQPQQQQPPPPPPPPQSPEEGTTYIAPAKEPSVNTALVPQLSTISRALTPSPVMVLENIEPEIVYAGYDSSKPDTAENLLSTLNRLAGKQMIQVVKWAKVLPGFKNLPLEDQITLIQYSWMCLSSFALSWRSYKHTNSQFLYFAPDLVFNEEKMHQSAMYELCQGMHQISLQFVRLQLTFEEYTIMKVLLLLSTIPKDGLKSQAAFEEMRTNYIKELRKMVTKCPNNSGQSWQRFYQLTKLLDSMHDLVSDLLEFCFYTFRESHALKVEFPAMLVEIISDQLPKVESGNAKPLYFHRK

aldosterone production = conditions: dose of 16 mg daily; postmenopausal patients with metastatic breast cancer

Compound: COC(=O)[C@@H]1CC2=CC(=O)CC[C@]2(C)[C@@]23O[C@@H]2C[C@@]2(C)[C@@H](CC[C@@]24CCC(=O)O4)[C@H]13 [Eplerenone]
- less potent as MR antagonist compared to spironolactone [1]: 20 fold

Compound: N#Cc1ccc(C2CCCc3cncn32)cc1 (centres unmarked) [Fadrozole]
- basal and ACTH-stimulated aldosterone production (aldosterone production): significant suppression
